Measurements: US20240131168A1, “NAPHTHALENE RING-CONTAINING COMPOUND, PHARMACEUTICAL COMPOSITION CONTAINING SAME, AND USE THEREOF” (JIANGSU YAHONG MEDITECH CO., LTD., priority 2021, published 2024)

Columns and labels:
Type in all cases: cell-based
MCF-7 = test: CellTiter-Glo cell proliferation inhibition, MCF-7 (Effect Example 2); conditions: Homo sapiens, MCF7, 144 h, MCF-7 (CTG), 6 days, starting concentration 10 μM; for inhibition at up to 10 µM: read-out: IH % max (maximum inhibition percentage)
Text: (§1) 1. Cell line • (1) Breast cancer cell lines and their culture media: • MCF-7 (ATCC; Cat. No.: HTB-22), a Luminal A breast cancer cell; • TamR-MCF-7 (ATCC; Cat. No.: CRL-3435), a breast cancer cell; • MCF-7 ER^D538G: a Luminal A breast cancer cell obtained by constructing MCF-7 (ATCC; Cat. No.: HTB-22) using CRISPR-Cas9 gene editing technology; • MCF-7 ER^Y537S: a Luminal A breast cancer cell obtained by constructing MCF-7 (ATCC; Cat. No.: HTB-22) using CRISPR-Cas9 gene editing technology; • MDA-MB-231: (manufacturer: Nanjing CoBioer Biosciences Co., Ltd.), a triple-negative breast cancer cell; • MDA-MB-468: (manufacturer: Nanjing CoBioer Biosciences Co., Ltd.), a triple-negative breast cancer cell.
(§2) Herein, the culture medium of MCF-7, TamR-MCF-7, MCF-7 ER^D538G, and MCF-7 ER^Y537S was EMEM; • the culture medium of MDA-MB-231 and MDA-MB-468 was DMEM.
(§3) 2. Reagents • Culture medium EMEM (Gibco, 1964507) • Culture medium DMEM (Gibco, 12430-054) • Fetal bovine serum (Gibco, 10091148) • Penicillin-streptomycin double antibody (Gibco, S110JV) • DPBS (Gibco, 14190-144) • CellTiter-Glo® assay kit (Promega, G7573) • Trypsin (0.25%) (Gibco, 25200-056) • DMSO (Sigma, D2650)
(§4) 3. Instruments • Biosafety cabinet (AIRTECH, BSC-1300A II) • Automated cell counter (Life Technologies, countess II) • Multifunctional microplate reader (Biotek, H1FM) • Orbital shaker (Hangzhou Allsheng Instruments Co., Ltd., OS-100) • XLFIT 5.3 (Inforstack Shanghai Co., Ltd.)
(§5) For this test method, the following experiments were performed in a biosafety cabinet, with the specific steps as follows: • (1) Cells were inoculated in a 96-well plate. One day later, the previous culture medium was poured off, 5 mL of DPBS was added to wash the cells, and then DPBS was pipetted and discarded. An appropriate amount of trypsin was then added. The plate was digested in a 37° C., 5% CO2 cell incubator for about 2 to 5 minutes and then taken out. Anew corresponding culture medium was added, and pipetted up and down to resuspend the cells evenly. The cells were then counted using an automated cell counter. • (2) Each cell was inoculated in columns 1 to 11 of a 96-well plate (Corning, Cat. No.: 3610) at a density of 1,000 or 2,000 cells per well in 100 μL of culture medium, and 100 μL of the corresponding culture medium without cells was added to the wells in column 12. The plate was then placed in a 37° C., 5% CO2 incubator for 24 hours. • (3) The compound of the present disclosure and the control drug fulvestrant (Selleck; Cat. No.: S1191) were then 4-fold serially diluted to 10 dose points starting at 10 μM. 10 μL of the serially diluted compound was pipetted and added to 100 μL of cells in columns 1 to 10, and 10 μL of the corresponding culture medium containing 0.33 v % DMSO was added to both columns 11 and 12. The plate was incubated in a 37° C., 5% CO2 incubator for 6 days or 72 hours (Note: column 11 was used as a MAX well with cells but without compound; column 12 was used as a MIN well without cells […]). • (4) The cell viability detection reagent in the CellTiter-Glo® assay kit was then added to the 96-well plate at 50 μL per well according to the instructions, and shaken on an orbital shaker in the dark for 5 to 10 minutes. The cell viability was then measured using a multifunctional microplate reader. Finally, the inhibition of cell proliferation by the compound of the present disclosure was plotted by XLFIT software, and the IC50 value (half inhibitory concentration) and the IH % max (maximum inhibition percentage) of the compound of the present disclosure were calculated.

MDA-MB-468 = test: CellTiter-Glo cell proliferation inhibition, MDA-MB-468; conditions: Homo sapiens, 144 h, MDA-MB-468 (CTG), 6 days, starting concentration 10 μM; for inhibition at up to 10 µM: read-out: IH % max (maximum inhibition percentage)
Text: as §1, §2, §3, §4, §5
Compounds D64 to D69 were tested for MDA-MB-231 (CTG) and MDA-MB-468 (CTG) with an incubation time of 72 hours in the incubator.

MCF-7 ER^D538G = test: CellTiter-Glo cell proliferation inhibition, MCF-7 ER^D538G; conditions: Homo sapiens, MCF7, 144 h; MCF-7 ER^D538G (CTG), 6 days, starting concentration 10 μM; read-out: IH % max (maximum inhibition percentage)
Text: as §1, §2, §3, §4, §5

COc1ccc2c(Oc3ccc(OCCN4CCN(c5ccc6c(c5)CN(C5CCC(=O)NC5=O)C6=O)CC4)cc3)c(-c3ccc(S(C)(=O)=O)cc3)ccc2c1 (stereo not shown) [Compound D3, 3-(5-(4-(2-(4-((6-methoxy-2-(4-(methylsulfonyl)phenyl)naphthalen-1-yl)oxy)phenoxy)ethyl)piperazin-1-yl)-1-oxoisoindolin-2-yl)piperidine-2,6-dione]
inhibition at up to 10 µM (MCF-7): 30%
IC50 (MDA-MB-468): 18.6 nM
inhibition at up to 10 µM (MDA-MB-468): 73%

CS(=O)(=O)c1ccc(-c2ccc3cc(O)ccc3c2Oc2ccc(OCCCCN3CCN(c4ccc5c(c4)C(=O)N(C4CCC(=O)NC4=O)C5=O)CC3)cc2)cc1 (stereo not shown) [Compound D13, 2-(2,6-dioxopiperidin-3-yl)-5-(4-(4-(4-((6-hydroxy-2-(4-(methylsulfonyl)phenyl)naphthalen-1-yl)oxy)phenoxy)butyl)piperazin-1-yl)isoindoline-1,3-dione]
inhibition at up to 10 µM (MCF-7): 34%

CS(=O)(=O)c1ccc(-c2ccc3cc(O)ccc3c2Oc2ccc(OCCOCCOCCOCCOc3cccc4c3CN(C3CCC(=O)NC3=O)C4=O)cc2)cc1 (stereo not shown) [Compound D14, 3-(4-(2-(2-(2-(2-(4-((6-hydroxy-2-(4-(methylsulfonyl)phenyl)naphthalen-1-yl)oxy)phenoxy)ethoxy)ethoxy)ethoxy)ethoxy)-1-oxoisoindolin-2-yl)piperidine-2,6-dione]
inhibition at up to 10 µM (MCF-7): 42%
inhibition at up to 10 µM (MCF-7 ER^D538G): 40%
inhibition at up to 10 µM (MDA-MB-468): 32%

CS(=O)(=O)c1ccc(-c2ccc3cc(O)ccc3c2Oc2ccc(OCCOCCOCCOCCNc3cccc4c3CN(C3CCC(=O)NC3=O)C4=O)cc2)cc1 (stereo not shown) [Compound D20, 3-(4-((2-(2-(2-(2-(4-((6-hydroxy-2-(4-(methylsulfonyl)phenyl)naphthalen-1-yl)oxy)phenoxy)ethoxy)ethoxy)ethoxy)ethyl)amino)-1-oxoisoindolin-2-yl)piperidine-2,6-dione]
inhibition at up to 10 µM (MCF-7): 38%

CS(=O)(=O)c1ccc(-c2ccc3cc(O)ccc3c2Oc2ccc(OCCOCCOCCOCCNc3ccc4c(c3)C(=O)N(C3CCC(=O)NC3=O)C4)cc2)cc1 (stereo not shown) [Compound D29]
inhibition at up to 10 µM (MCF-7): 47%
inhibition at up to 10 µM (MCF-7 ER^D538G): 47%

CS(=O)(=O)c1ccc(-c2ccc3cc(O)ccc3c2Oc2ccc(OCCOCCOCCN3CCN(c4cccc5c4CN(C4CCC(=O)NC4=O)C5=O)CC3)cc2)cc1 (stereo not shown) [Compound D37, 3-(4-(4-(2-(2-(2-(4-((6-hydroxy-2-(4-(methylsulfonyl)phenyl)naphthalen-1-yl)oxy)phenoxy)ethoxy)ethoxy)ethyl)piperazin-1-yl)-1-oxoisoindolin-2-yl)piperidine-2,6-dione]
inhibition at up to 10 µM (MCF-7): 49%
inhibition at up to 10 µM (MCF-7 ER^D538G): 52%

CS(=O)(=O)c1ccc(-c2ccc3cc(O)ccc3c2Oc2ccc(OCCOCCN3CCN(c4ccc5c(c4)C(=O)N(C4CCC(=O)NC4=O)C5)CC3)cc2)cc1 (stereo not shown) [Compound D43, 3-(6-(4-(2-(2-(4-((6-hydroxy-2-(4-(methylsulfonyl)phenyl)naphthalen-1-yl)oxy)phenoxy)ethoxy)ethyl)piperazin-1-yl)-1-oxoisoindolin-2-yl)piperidine-2,6-dione]
inhibition at up to 10 µM (MCF-7): 36%
inhibition at up to 10 µM (MCF-7 ER^D538G): 36%

CCN(CCOCCOCC(=O)N1CCN(c2ccc3c(c2)C(=O)N(C2CCC(=O)NC2=O)C3)CC1)CCOc1ccc(Oc2c(-c3ccc(S(C)(=O)=O)cc3)ccc3cc(O)ccc23)cc1 (stereo not shown) [Compound D44]
inhibition at up to 10 µM (MCF-7): 33%
inhibition at up to 10 µM (MCF-7 ER^D538G): 52%

CCN(CCOCCOCC(=O)N1CCN(c2ccc3c(c2)CN(C2CCC(=O)NC2=O)C3=O)CC1)CCOc1ccc(Oc2c(-c3ccc(S(C)(=O)=O)cc3)ccc3cc(O)ccc23)cc1 (stereo not shown) [Compound D46]
inhibition at up to 10 µM (MCF-7): 34%
inhibition at up to 10 µM (MCF-7 ER^D538G): 46%

CCN(CCOCC(=O)N1CCN(c2ccc3c(c2)C(=O)N(C2CCC(=O)NC2=O)C3)CC1)CCOc1ccc(Oc2c(-c3ccc(S(C)(=O)=O)cc3)ccc3cc(O)ccc23)cc1 (stereo not shown) [Compound D50]
inhibition at up to 10 µM (MCF-7): 48.4%

CCN(CCOCCN1CCN(c2ccc3c(c2)C(=O)N(C2CCC(=O)NC2=O)C3)CC1)CCOc1ccc(Oc2c(-c3ccc(S(C)(=O)=O)cc3)ccc3cc(O)ccc23)cc1 (stereo not shown) [Compound D51]
IC50 (MCF-7): 143 nM
inhibition at up to 10 µM (MCF-7): 52.9%

CS(=O)(=O)c1ccc(-c2ccc3cc(O)ccc3c2Oc2ccc(OCCN3CCN(c4cccc5c4CN(C4CCC(=O)NC4=O)C5=O)CC3)cc2)cc1 (stereo not shown) [Compound D53, 3-(4-(4-(2-(4-((6-hydroxy-2-(4-(methylsulfonyl)phenyl)naphthalen-1-yl)oxy)phenoxy)ethyl)piperazin-1-yl)-1-oxoisoindolin-2-yl)piperidine-2,6-dione]
inhibition at up to 10 µM (MCF-7): 49.7%
inhibition at up to 10 µM (MDA-MB-468): 99.2%

CS(=O)(=O)c1ccc(-c2ccc3cc(O)ccc3c2Oc2ccc(OCC(=O)N3CCN(c4ccc5c(c4)CN(C4CCC(=O)NC4=O)C5=O)CC3)cc2)cc1 (stereo not shown) [Compound D54, 3-(5-(4-(2-(4-((6-hydroxy-2-(4-(methylsulfonyl)phenyl)naphthalen-1-yl)oxy)phenoxy)acetyl)piperazin-1-yl)-1-oxoisoindolin-2-yl)piperidine-2,6-dione]
IC50 (MCF-7): 13.2 nM
inhibition at up to 10 µM (MCF-7): 96.5%

CCN(CCOc1ccc(Oc2c(-c3ccc(S(C)(=O)=O)cc3)ccc3cc(O)ccc23)cc1)CCN1CCN(c2ccc3c(c2)C(=O)N(C2CCC(=O)NC2=O)C3)CC1 (stereo not shown) [Compound D56]
inhibition at up to 10 µM (MCF-7): 55.6%

COc1ccc2c(Oc3ccc(OCCCCN4CCN(c5ccc6c(c5)CN(C5CCC(=O)NC5=O)C6=O)CC4)cc3)c(-c3ccc(S(C)(=O)=O)cc3)ccc2c1 (stereo not shown) [Compound D58, 3-(5-(4-(4-(4-((6-methoxy-2-(4-(methylsulfonyl)phenyl)naphthalen-1-yl)oxy)phenoxy)butyl)piperazin-1-yl)-1-oxoisoindolin-2-yl)piperidine-2,6-dione]
inhibition at up to 10 µM (MCF-7): 39%

CCN(CCOCCOCCOCCNc1ccc2c(c1)C(=O)N(C1CCC(=O)NC1=O)C2=O)CCOc1ccc(Oc2c(-c3ccc(S(C)(=O)=O)cc3)ccc3cc(O)ccc23)cc1 (stereo not shown) [Compound D62, 2-(2,6-dioxopiperidin-3-yl)-5-((3-ethyl-1-(4-((6-hydroxy-2-(4-(methylsulfonyl)phenyl)naphthalen-1-yl)oxy)phenoxy)-6,9,12-trioxa-3-azatetradecan-14-yl)amino)isoindoline-1,3-dione]
inhibition at up to 10 µM (MCF-7): 45.1%
inhibition at up to 10 µM (MDA-MB-468): 98.5%

CCN(CCCCCCCCCc1ccc2c(c1)C(=O)N(C1CCC(=O)NC1=O)C2=O)CCOc1ccc(Oc2c(-c3ccc(S(C)(=O)=O)cc3)ccc3cc(O)ccc23)cc1 (stereo not shown) [Compound D63, 2-(2,6-dioxopiperidin-3-yl)-5-(9-(ethyl(2-(4-((6-hydroxy-2-(4-(methylsulfonyl)phenyl)naphthalen-1-yl)oxy)phenoxy)ethyl)amino)nonyl)isoindoline-1,3-dione]
IC50 (MCF-7): 153 nM
inhibition at up to 10 µM (MCF-7): 98.9%
